In brackets after ≈: the same amount, converted by molar mass.
Experiments:
PfPKG [1] = molecular target: T1, PfPKG (Plasmodium falciparum, UniProt Q8I719); assay: in vitro PfPKG enzyme inhibition assay; type: biochemical; conditions: […] compound
CYP3A4 = CYP3A4 (Homo sapiens, UniProt P08684); assay: in vitro CYP3A4 inhibition; type: biochemical
[2] = mouse, microsomes
physchem = conditions: water
PfPKG [3] = molecular target: T1, PfPKG; assay: in vitro PfPKG enzyme inhibition assay; type: biochemical; conditions: […] compound; remark: listed apart in the source
PfPKG [4] = molecular target: T1, PfPKG; assay: in vitro PfPKG enzyme inhibition assay; type: biochemical

T1 sequence (Q8I719 whole entry): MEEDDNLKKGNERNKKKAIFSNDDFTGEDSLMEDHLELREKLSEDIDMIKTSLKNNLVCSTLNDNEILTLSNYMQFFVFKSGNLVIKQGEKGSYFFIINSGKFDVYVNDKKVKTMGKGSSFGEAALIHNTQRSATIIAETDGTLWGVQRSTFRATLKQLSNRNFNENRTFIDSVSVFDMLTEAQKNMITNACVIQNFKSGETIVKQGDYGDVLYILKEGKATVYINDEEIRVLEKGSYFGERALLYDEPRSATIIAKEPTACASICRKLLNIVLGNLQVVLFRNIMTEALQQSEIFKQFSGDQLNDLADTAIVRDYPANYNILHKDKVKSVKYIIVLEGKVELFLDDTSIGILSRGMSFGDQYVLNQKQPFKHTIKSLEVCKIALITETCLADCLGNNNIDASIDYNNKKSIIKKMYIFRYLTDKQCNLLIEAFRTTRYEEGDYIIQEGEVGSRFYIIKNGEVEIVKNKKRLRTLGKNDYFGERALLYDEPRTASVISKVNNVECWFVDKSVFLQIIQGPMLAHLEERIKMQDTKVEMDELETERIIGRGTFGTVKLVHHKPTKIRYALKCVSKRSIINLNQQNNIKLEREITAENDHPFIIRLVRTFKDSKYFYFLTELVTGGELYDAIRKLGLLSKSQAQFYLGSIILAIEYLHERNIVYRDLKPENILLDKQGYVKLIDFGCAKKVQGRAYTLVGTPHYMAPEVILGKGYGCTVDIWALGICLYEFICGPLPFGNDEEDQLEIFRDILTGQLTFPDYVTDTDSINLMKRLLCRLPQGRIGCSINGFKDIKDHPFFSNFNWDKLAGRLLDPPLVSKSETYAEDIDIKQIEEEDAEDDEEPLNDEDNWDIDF
CYP3A4, sequence (P08684 2-503): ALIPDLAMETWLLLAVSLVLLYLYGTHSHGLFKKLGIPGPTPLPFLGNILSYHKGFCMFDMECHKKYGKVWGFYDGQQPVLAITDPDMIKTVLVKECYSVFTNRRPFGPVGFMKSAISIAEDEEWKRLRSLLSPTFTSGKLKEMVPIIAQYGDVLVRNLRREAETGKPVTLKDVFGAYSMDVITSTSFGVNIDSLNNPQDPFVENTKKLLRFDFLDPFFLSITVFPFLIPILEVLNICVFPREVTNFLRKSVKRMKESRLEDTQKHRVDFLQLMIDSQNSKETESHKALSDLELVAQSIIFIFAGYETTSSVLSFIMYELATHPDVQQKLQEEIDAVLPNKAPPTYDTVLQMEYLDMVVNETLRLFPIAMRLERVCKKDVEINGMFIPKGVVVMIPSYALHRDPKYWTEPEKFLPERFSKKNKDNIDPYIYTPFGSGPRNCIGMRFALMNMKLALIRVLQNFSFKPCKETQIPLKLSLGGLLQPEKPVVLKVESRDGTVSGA

For Cc1cn(-c2ccnc(NC3CCCN(C(=O)c4nccs4)C3)n2)c(-c2ccccc2)n1 (racemic) [10d], the “% inh @ 1 μM” value (PfPKG [1]) was 4%.
For Cc1cn(-c2ccnc(NCC3CCCN3C(=O)c3nccs3)n2)c(-c2ccccc2)n1 (racemic) [10f], the “% inh @ 1 μM” value (PfPKG [1]) was 3%.
Cc1cn(-c2ccnc(N[C@@H]3CCN(C(=O)c4nccs4)C3)n2)c(-c2ccccc2)n1 [10a] showed an IC50 (CYP3A4) of 940 nM.
With Cc1cn(-c2ccnc(N[C@H]3CCN(C(=O)c4nccs4)C3)n2)c(-c2ccccc2)n1 [10c] the “% inh @ 1 μM” value (PfPKG [1]) was 4%.
In the case of Cc1cn(-c2ccnc(NC3CCN(C(=O)c4nccs4)CC3)n2)c(-c2ccccc2)n1 [10e], the “% inh @ 1 μM” value (PfPKG [1]) is reported as 5%.
With O=C(c1nccs1)N1CC[C@@H](Nc2nccc(-n3cc(C4CC4)nc3-c3ccccc3)n2)C1 [14a] the “MLM t1/2” value [2] was under 2 min and the solubility (physchem) was 92 µM (≈ 42.1 µg/mL).
With O=C(c1nccs1)N1CC[C@@H](Nc2nccc(-n3cc(C4CC4)nc3-c3cccc(Cl)c3)n2)C1 [14b] the “MLM t1/2” value [2] was under 2 min and the solubility (physchem) was 28 µM (≈ 13.8 µg/mL).
With Cc1cn(-c2ccnc(N[C@@H]3CCN(C(=O)c4nccs4)C3)n2)c(-c2ccccc2Cl)n1 [18b] the “% inhib @ 1 μM” value (PfPKG [3]) was 47%.
CN1CCC(c2cc(-c3ccc(F)cc3)c(-c3ccncc3)[nH]2)CC1 [compound 5, pyrrole 5] gave an IC50 (PfPKG [4]) of 22 nM.
